# Test results from ChEMBL document CHEMBL4699559, “Discovery of CC-90011: A Potent and Selective Reversible Inhibitor of Lysine Specific Demethylase 1 (LSD1)” (J Med Chem, 2020).
# Active and inactive are the calls of the source. The rule behind the calls is not given here.
# Assays:
# [1] = AUC (0 to 6 hrs) in CD1 mouse at 10 mg/kg, po; assay type: ADME, organism-based; parameters: time < 6 hr, route oral, dose 10 mg/kg; conditions: in vivo
# [2] = target: hERG (KCNH2) (Homo sapiens, UniProt Q12809); experiment: Inhibition of human ERG at 10 uM relative to control
# Chain of hERG (KCNH2) (Q12809 whole entry): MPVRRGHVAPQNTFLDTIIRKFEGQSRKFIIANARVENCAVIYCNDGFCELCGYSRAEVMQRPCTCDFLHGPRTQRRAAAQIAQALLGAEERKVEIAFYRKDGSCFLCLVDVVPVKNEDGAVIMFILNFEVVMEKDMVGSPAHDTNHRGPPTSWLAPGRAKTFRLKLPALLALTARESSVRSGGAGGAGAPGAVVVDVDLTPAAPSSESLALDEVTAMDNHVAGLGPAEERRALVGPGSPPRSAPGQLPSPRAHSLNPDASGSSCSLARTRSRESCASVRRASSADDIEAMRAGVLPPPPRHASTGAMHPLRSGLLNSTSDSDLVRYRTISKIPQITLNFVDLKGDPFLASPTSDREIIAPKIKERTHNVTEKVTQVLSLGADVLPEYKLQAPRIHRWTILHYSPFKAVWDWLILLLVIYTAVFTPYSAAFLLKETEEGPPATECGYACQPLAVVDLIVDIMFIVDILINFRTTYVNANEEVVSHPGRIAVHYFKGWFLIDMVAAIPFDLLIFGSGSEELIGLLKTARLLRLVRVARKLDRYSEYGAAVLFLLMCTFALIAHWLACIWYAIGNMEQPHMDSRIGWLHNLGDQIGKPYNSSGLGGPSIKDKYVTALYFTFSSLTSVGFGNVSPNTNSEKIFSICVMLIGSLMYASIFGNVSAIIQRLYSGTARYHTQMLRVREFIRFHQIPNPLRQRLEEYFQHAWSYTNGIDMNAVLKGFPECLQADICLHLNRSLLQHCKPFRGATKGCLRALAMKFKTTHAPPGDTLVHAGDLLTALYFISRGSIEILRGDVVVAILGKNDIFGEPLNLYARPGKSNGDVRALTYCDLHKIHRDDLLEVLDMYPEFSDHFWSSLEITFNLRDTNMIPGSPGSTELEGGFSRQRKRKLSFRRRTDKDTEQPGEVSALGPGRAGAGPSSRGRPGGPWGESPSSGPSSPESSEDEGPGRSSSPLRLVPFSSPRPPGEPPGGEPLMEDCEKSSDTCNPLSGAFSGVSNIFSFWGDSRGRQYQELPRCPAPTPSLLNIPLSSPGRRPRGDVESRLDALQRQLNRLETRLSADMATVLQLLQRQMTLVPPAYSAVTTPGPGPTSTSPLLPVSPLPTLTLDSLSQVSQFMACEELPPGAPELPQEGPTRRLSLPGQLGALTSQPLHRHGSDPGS
# [3] = Volume of distribution at steady state in CD1 mouse at 5 mg/kg, iv; assay type: ADME, organism-based; conditions: in vivo, read-out: Vdss
# [4] = Half life in CD1 mouse at 5 mg/kg, iv; assay type: ADME, organism-based; conditions: in vivo
# [5] = Antitumor activity against human LU2514 xenografted in Crl:CD1-Foxn1nu mouse patient-derived xenograft model assessed as inhibition of tumor growth at 10 mg/kg, po QD for 28 days relative to control; assay type: functional; conditions: 672 h, time 28 day, read-out: TGI
# [6] = tested on: IMR-90; experiment: Anti-proliferative activity in human IMR-90 cells incubated for 168 hrs by MTS assay; assay type: functional, cell-based; conditions: IMR-90, 168 h
# [7] = Cmax in CD1 mouse at 5 mg/kg, po; assay type: ADME, organism-based; parameters: route oral, dose 5 mg/kg; conditions: in vivo
# [8] = target: T1, Amine oxidase [flavin-containing] B (Homo sapiens, UniProt P27338); experiment: Inhibition of MAOB (unknown origin) at; conditions: dose <10 µM
# T1 sequence (P27338 whole entry): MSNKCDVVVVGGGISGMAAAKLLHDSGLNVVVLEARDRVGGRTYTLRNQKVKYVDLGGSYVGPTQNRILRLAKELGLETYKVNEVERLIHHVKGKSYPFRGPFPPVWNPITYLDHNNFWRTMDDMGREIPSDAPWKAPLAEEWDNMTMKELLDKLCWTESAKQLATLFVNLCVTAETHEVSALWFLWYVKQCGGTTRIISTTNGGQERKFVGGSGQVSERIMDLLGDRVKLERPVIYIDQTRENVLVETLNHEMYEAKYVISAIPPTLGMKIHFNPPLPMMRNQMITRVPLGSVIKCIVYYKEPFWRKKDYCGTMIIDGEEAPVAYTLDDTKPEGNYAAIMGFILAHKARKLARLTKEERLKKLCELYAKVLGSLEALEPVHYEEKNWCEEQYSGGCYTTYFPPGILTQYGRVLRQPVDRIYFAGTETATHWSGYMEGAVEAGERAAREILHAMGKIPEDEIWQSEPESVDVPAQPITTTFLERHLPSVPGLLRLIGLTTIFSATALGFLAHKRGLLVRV
# [9] = tested on: Kasumi 1; experiment: Anti-proliferative activity in human Kasumi 1 cells incubated for 168 hrs by MTS assay; assay type: functional, cell-based; conditions: Kasumi 1, 168 h
# [10] = tested on: NCI-H1417; experiment: Antitumor activity against human NCI-H1417 cells xenografted in Crl:CD1-Foxn1nu mouse assessed as tumor growth regression level at 5 mg/kg, po QD for 65 days relative to control; assay type: functional; conditions: time 65 day
# [11] = tested on: Mus musculus; experiment: Induction of in-vivo cell differentiation in Crl:CD1-Foxn1nu mouse patient-derived xenograft model xenografted with human LU2514 assessed as reduction in nucleus to cytoplasm ratio at 10 mg/kg, po QD for 28 days and measured 15 days post last dose by H and E staining based assay; assay type: functional, organism-based; conditions: time 43.0 day
# [12] = tested on: Mus musculus; experiment: Induction of in-vivo cell differentiation in Crl:CD1-Foxn1nu mouse patient-derived xenograft model xenografted with human LU2514 assessed as increase in apoptotic bodies at 10 mg/kg, po QD for 28 days and measured 15 days post last dose by H and E staining based assay; assay type: functional, organism-based; conditions: time 43.0 day
# [13] = Antitumor activity against human LXFS615 xenografted in Crl:CD1-Foxn1nu mouse patient-derived xenograft model assessed as inhibition of tumor growth at 5 mg/kg, po dosed daily for 30 days relative to control; assay type: functional; conditions: 720 h, time 30 day, read-out: TGI
# [14] = Clearance in CD1 mouse at 5 mg/kg, iv; assay type: ADME, organism-based; conditions: in vivo
# [15] = AUC (0 to 24 hrs) in CD1 mouse at 5 mg/kg, po; assay type: ADME, organism-based; parameters: time < 24 hr, route oral, dose 5 mg/kg; conditions: in vivo
# [16] = tested on: NCI-H1417; experiment: Antitumor activity against human NCI-H1417 cells xenografted in Crl:CD1-Foxn1nu mouse assessed as tumor growth regression level at 2.5 mg/kg, po QD for 65 days relative to control; assay type: functional; conditions: time 65 day
# [17] = Antitumor activity against human LU2514 xenografted in Crl:CD1-Foxn1nu mouse patient-derived xenograft model assessed as inhibition of tumor growth at 5 mg/kg, po QD for 28 days relative to control; assay type: functional; conditions: 672 h, time 28 day, read-out: TGI
# [18] = Protein binding in mouse plasma; assay type: ADME, cell-free; conditions: read-out: PPB (converted)
# [19] = tested on: Mus musculus; experiment: Inhibition of GRP mRNA expression in Crl:CD1-Foxn1nu mouse xenografted with human NCI-H1417 cells at 5 mg/kg, po QD for 4 days and measured 24 hrs post last dose by qPCR analysis; assay type: functional, organism-based; conditions: time 5.0 day
# [20] = target: T2, Amine oxidase [flavin-containing] A (Homo sapiens, UniProt P21397); experiment: Inhibition of MAOA (unknown origin) at; conditions: dose <10 µM
# T2 sequence (P21397 whole entry): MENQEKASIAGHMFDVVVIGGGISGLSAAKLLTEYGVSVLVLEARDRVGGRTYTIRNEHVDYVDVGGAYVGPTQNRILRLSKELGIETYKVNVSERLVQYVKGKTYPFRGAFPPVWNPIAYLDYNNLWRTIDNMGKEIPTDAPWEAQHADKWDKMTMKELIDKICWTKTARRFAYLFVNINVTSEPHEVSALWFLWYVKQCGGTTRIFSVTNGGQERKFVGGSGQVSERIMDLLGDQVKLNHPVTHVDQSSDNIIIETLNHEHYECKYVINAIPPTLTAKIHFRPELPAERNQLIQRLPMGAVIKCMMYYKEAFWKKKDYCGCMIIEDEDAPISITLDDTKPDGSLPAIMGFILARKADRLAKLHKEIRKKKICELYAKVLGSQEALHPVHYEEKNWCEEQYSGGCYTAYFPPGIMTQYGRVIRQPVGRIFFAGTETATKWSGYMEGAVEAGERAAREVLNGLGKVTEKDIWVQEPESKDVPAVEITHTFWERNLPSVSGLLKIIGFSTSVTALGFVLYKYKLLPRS
# [21] = Toxicity in Crl:CD1-Foxn1nu mouse xenografted with human NCI-H1417 cells assessed as weight gain level at 2.5 to 5 mg/kg, po QD for 65 days relative to control; assay type: organism-based; conditions: in vivo, 1560 h, dose 2.5-5 mg/kg, time 65 day
# [22] = target: T3, Lysine-specific histone demethylase 2 (Homo sapiens) (UniProt Q8NB78); experiment: Inhibition of LSD2 (unknown origin) at; conditions: dose microM <10
# T3 sequence (whole entry): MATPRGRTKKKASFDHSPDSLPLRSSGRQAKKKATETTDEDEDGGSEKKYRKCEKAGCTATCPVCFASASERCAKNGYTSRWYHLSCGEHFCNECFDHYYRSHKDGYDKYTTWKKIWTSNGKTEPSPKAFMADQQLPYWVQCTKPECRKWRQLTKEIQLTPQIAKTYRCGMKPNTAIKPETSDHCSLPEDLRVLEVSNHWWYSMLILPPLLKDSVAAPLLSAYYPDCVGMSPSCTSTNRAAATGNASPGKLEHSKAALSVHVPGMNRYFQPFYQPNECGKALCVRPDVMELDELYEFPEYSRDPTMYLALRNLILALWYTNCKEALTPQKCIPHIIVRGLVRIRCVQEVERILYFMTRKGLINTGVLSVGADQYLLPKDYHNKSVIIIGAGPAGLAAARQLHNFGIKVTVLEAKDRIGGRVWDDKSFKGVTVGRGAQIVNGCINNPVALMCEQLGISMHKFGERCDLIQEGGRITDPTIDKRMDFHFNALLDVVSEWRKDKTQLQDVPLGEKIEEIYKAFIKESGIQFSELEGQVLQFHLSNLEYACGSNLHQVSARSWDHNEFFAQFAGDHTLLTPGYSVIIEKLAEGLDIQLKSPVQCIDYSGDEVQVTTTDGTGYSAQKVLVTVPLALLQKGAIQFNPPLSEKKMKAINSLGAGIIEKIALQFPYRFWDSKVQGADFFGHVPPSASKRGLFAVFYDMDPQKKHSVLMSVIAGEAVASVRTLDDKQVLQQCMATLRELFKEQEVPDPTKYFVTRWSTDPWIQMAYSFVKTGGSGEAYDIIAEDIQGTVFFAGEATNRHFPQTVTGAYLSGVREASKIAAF
# [23] = Toxicity in Crl:CD1-Foxn1nu mouse xenografted with human LXFS615 cells assessed as weight loss at 5 mg/kg, po dosed daily for 30 days relative to control; assay type: organism-based; conditions: in vivo, 720 h, time 30 day
# [24] = Oral bioavailability in CD1 mouse at 5 mg/kg; assay type: ADME, organism-based; conditions: in vivo
# [25] = tested on: Mus musculus; experiment: Induction of in-vivo cell differentiation in Crl:CD1-Foxn1nu mouse patient-derived xenograft model xenografted with human LU2514 assessed as loosening of cellular structure at 10 mg/kg, po QD for 28 days and measured 15 days post last dose by H and E staining based assay; assay type: functional, organism-based; conditions: time 43.0 day
# [26] = tested on: Mus musculus; experiment: Inhibition of GRP mRNA expression in Crl:CD1-Foxn1nu mouse xenografted with human NCI-H1417 cells at 2.5 mg/kg, po QD for 4 days and measured 24 hrs post last dose by qPCR analysis; assay type: functional, organism-based; conditions: time 5.0 day
smiles,measurement,setting,value
Cc1ccc(-c2c(-c3ccc(C#N)cc3)nc(N3CCC(N)CC3)c(=O)n2C)cc1,AUC(0-t) at 6 h,[1],7.3 µM·h
same,inhibition at 10 µM,[2],95%
Cc1ccc(-c2cnc(C[C@H]3CCNC3)nc2-c2ccc(C#N)cc2)cc1,AUC(0-t) at 6 h,[1],1 µM·h
same,inhibition at 10 µM,[2],91%
COc1ccc(-c2c(-c3ccc(C#N)cc3)nc(N3CCC(N)CC3)n(C)c2=O)cc1,AUC(0-t) at 6 h,[1],6.1 µM·h
same,inhibition at 10 µM,[2],67%
COc1ccc(-c2c(-c3ccc(C#N)cc3)nc(N3CCC(N)CC3)n(C)c2=O)cc1F,AUC(0-t) at 6 h,[1],3 µM·h
same,inhibition at 10 µM,[2],48%
COc1ccc(-c2c(-c3ccc(C#N)c(F)c3)nc(N3CCC(N)CC3)n(C)c2=O)cc1F.O=S(=O)(O)c1ccccc1 [PULRODEMSTAT BESILATE],Vd,[3],7.5 L/kg
same,half-life,[4],2 h
same,inhibition in vivo at 10 mg/kg,[5],56%
same,EC50,[6],> 10000 nM
same,Cmax,[7],360 nM
same,inhibition (INH),[8],Not Active
same,EC50,[9],2 nM
same,Activity,[10],178%
same,Activity,[11],Active
same,Activity,[12],Active
same,inhibition in vivo at 5 mg/kg,[13],78%
same,AUC(0-t) at 6 h,[1],2.6 µM·h
same,clearance,[14],32.4 mL/min/kg
same,AUC(0-t) at 24 h,[15],1.8 µM·h
same,Activity,[16],159%
same,inhibition in vivo at 5 mg/kg,[17],39%
same,fraction unbound,[18],0.08
same,inhibition,[19],Active
same,inhibition (INH),[20],Not Active
same,Activity,[21],<= 7%
same,inhibition,[22],inactive
same,Activity,[23],< 1%
same,bioavailability,[24],32%
same,Activity,[25],Active
same,inhibition at 10 µM,[2],59%
same,inhibition,[26],Active
Cc1ccc(-c2c(-c3ccc(C#N)cc3)nc(N3CCC(N)CC3)n(C)c2=O)cc1,AUC(0-t) at 6 h,[1],10.5 µM·h
same,inhibition at 10 µM,[2],83%
Cc1ccc(-c2cnc(N3CC[C@@H]4NCC[C@@H]4C3)nc2-c2ccc(C#N)cc2)cc1,AUC(0-t) at 6 h,[1],14.5 µM·h
same,inhibition at 10 µM,[2],95%
